Experimental data: US20040259790A1, “Methods for identifying and administering agents that bias the immune response via dendritic cells” (priority 2003, published 2004)
Entries after “also recorded” stand apart in the source; their conditions may differ. Read-outs that look alike come from different tables or passages of the source.

How the values were obtained:
ERK1/2 [1] = assay: IL-12(p70) production by stimulated DCs with ERK1/2 inhibitor; assay type: cell-based, human; conditions: inhibitor 1 h before stimulus
[2] = test system: human monocyte-derived DCs; assay: DC phenotype/maturation by flow cytometry (CD80, CD86, CD83); assay type: cell-based; conditions: immature DCs cultured 48 h with stimulus
Procedure: Isolation and culture of human monocyte-derived DCs: CD14^+ monocytes were enriched from peripheral blood mononuclear cells (PBMCs), using an enrichment step, and cultured in six well plates (1×10^6 cells/well) for six days with recombinant Human GM-CSF at 100 ng/ml (PeproTech, NJ) and recombinant Human IL-4 at 20 ng/ml (PeproTech, NJ). At day six, the cultures consisted uniformly of CD1a^+CD14^−, HLA-DR^+ CD11c^+ cells, which were negative for CD83, the human DC maturation marker, and expressed intermediate levels of such costimulatory molecules as CD86 (Rissoan et al., Science 283:1183-1186, 1999). On day six, the immature DCs were pulsed with E. coli LPS ([…]), flagellin ([…]), Pam3cys ([…]), or SEA ([…]) for 48 hours.
DC phenotype: The phenotype of DCs was determined by flow cytometry using a Facscalibur (BD Pharmingen, CA). Briefly, gated CD1a^+CD14^−, CD11c^+ HLA-DR^+ DCs were analyzed for the expression of CD80, CD86, CD83 and CD40. All antibodies, including the PE-labeled isotype controls were purchased from BD Pharmingen (La Jolla, Calif.).
Isolation and culture of human monocyte-derived DCs: CD14^+ monocytes were enriched from peripheral blood mononuclear cells, and cultured for 6 days with recombinant human GM-CSF at 100 ng/ml (PeproTech, NJ) plus recombinant human IL-4, at 20 ng/ml (PeproTech). At day 6, the cultures consisted uniformly of CD1a^+ CD14^−, HLA-DR^+ CD11c^+ cells, which were negative for CD83. These immature DCs were pulsed with Ec.LPS (1 μg/ml), flagellin (0.5 μg/ml), Pam3cys (20 μg/ml), or SEA (100 μg/ml) for 48 h.
DC phenotype: This was determined by flow cytometry using a Facscalibur (BD Pharmingen, CA). Briefly, gated CD1a^+CD14^−, C11c+ HLA-DR^+DCs were analyzed for the expression of CD80, CD86, CD83 and CD40 (BD Pharmingen, La Jolla, Calif.).

[3] = test system: human monocyte-derived DCs; assay: Cytokine production by DCs (ELISA); assay type: cell-based
[4] = test system: naïve, allogeneic CD4+ CD45RA+ CD45RO− T cells; assay: DC-T cell cultures: T-cell proliferation and Th1/Th2 cytokines; assay type: cell-based, human; conditions: for IFNγ in DC-T cell culture: DCs stimulated 48 h, then 5 days with naive CD4+ T cells
p38 MAP kinase = assay: MAP-kinase signaling in DCs: p38 phosphorylation; assay type: cell-based, human
ERK1/2 [5] = assay: MAP-kinase signaling in DCs: ERK1/2 phosphorylation; assay type: cell-based, human; conditions: 0.25, 1 and 4 h stimulation
JNK1/2 = assay: MAP-kinase signaling in DCs: JNK1/2 phosphorylation (western blot); assay type: cell-based, human
c-Fos = assay: Flow cytometric evaluation of c-Fos expression in DCs; assay type: cell-based, human; conditions: for phosphorylated c-Fos expression in DCs: flow cytometry
[6] = test system: OVA-specific CD4+ T cells; assay: Antigen-specific CD4+ T cell responses in vivo (OT-2 adoptive transfer); design: species or system mice
[7] = test system: OVA-specific CD8+ T cells; assay: Antigen-specific CD8+ T cell responses in vivo (OT-1 adoptive transfer); design: species or system mice; conditions: for clonal expansion of OVA-specific CD8+ T cells: i.p. with OVA257-264 50 μg, E. coli LPS 25 μg or Pam-3-cys 50 μg, day 4
[8] = test system: splenic CD11c+ CD11b+ and CD11c+ CD11b− DC subsets; assay: Activation of splenic DC subsets in vivo
[9] = very high doses, which induced high levels of CD83
[10] = mice injected with OVA323-339 + stimulus
[11] = mice injected with OVA257-264 + stimulus

N#CC(=C(/N)Sc1ccccc1N)/C(C#N)=C(\N)Sc1ccccc1N [U0126]
IL-12(p70) production induced by Pam3cys when ERK1/2 is blocked (ERK1/2 [1]): significantly enhances IL-12(p70) production
IL-12(p70) production induced by SEA when ERK1/2 is blocked (ERK1/2 [1]): did not result in consistent increases in IL-12(p70)

S-[2,3-bis(palmitoyloxy)-(2-RS)-propyl]-N-palmitoyl-R-Cys-S-Ser-Lys4-OH [Pam3cys]
CD80 expression on DCs [2]: also weaker
CD86 expression on DCs [2]: much lower levels of CD86
DC maturation (maturation marker CD83) [2]: weaker than that induced by E. coli LPS or flagellin; also recorded: weaker than that induced by Ec.LPS or flagellin
IL-12 induced in DCs at 10 hrs ([3]; 10 hrs, no inhibitor): did not induce any IL-12
IL-12 induced in DCs at 24 hrs ([3]; 24 hrs, no inhibitor): 20 to 100 pg/mL
IL-10 secreted by DCs ([3]; 48 h with stimulus, ELISA): induced
TNF-α secreted by DCs ([3]; 48 h with stimulus, ELISA): much weaker levels
IL-12(p70) secreted by DCs ([3]; 48 h with stimulus, doses giving equivalent IL-6, ELISA): little or no IL-12(p70)
IL-12(p70) secreted by DCs at very high doses of stimulus [3, 9]: did not induce IL-12(p70)
IL-5 in DC-T cell culture ([4]; Example 1, FIG. 2B): high levels
IL-13 in DC-T cell culture ([4]; Example 1, FIG. 2B): 1458 pg/mL
IFNγ in DC-T cell culture ([4]; Example 1, FIG. 2B): high levels
IL-5 in DC-T cell culture ([4]; Example 2, FIG. 8b): 600 pg/mL
IL-13 in DC-T cell culture ([4]; Example 2, FIG. 8b): 600 pg/mL
IFNγ in DC-T cell culture ([4]; Example 2, FIG. 8b): approximately 2000 pg/ml
Th1 responses induced by DCs stimulated at very high doses [4, 9]: did not induce Th1 responses
phosphorylation of p38 MAP kinase in DCs (p38 MAP kinase; 0.25, 1 and 4 h stimulation, phosphorylated to total ratio, ELISA): rapid burst of p38 phosphorylation at 15 minutes, which rapidly declined to near baseline levels by 1 hour
phosphorylation of p38 MAP kinase in DCs (p38 MAP kinase; 0.25, 1 and 4 h stimulation, phosphorylated to total ratio, ELISA, listed as Pam-3-cys): enhanced phosphorylation of p38 MAP kinase
ERK1/2 phosphorylation in DCs (ERK1/2 [5]): much higher magnitude and duration of phosphorylation (which was sustained even at 4 hours); also recorded: much higher magnitude and duration of phosphorylation, (which was sustained even at 4 h)
JNK1 phosphorylation in DCs (JNK1/2; Example 2, FIG. 9c, western blot): very weak
c-Fos expression in DCs at 4 hours (c-Fos; 4 h of stimulation): maintained, even at 4 hours; also recorded: maintained even at 4 hrs
phosphorylated c-Fos expression in DCs (c-Fos): expressed at significant levels
total c-Fos expression (mean fluorescence intensity, fraction of cells) in DCs (c-Fos; peak, 2 hrs of stimulation, versus E. coli LPS or flagellin): much greater
bias of the CD4+ Th response in vivo ([6]; OT-2): preferential bias towards the Th2 pathway
ratio IFNγ: IL-4 ([6]; OT-2, FIG. 12D): 40
ratio IFNγ: IL-5 ([6]; OT-2, FIG. 12D): 18
ratio IFNγ: IL-13 ([6]; OT-2, FIG. 12D): 1.2
IL-4 and IL-5 in restimulated spleen cell culture ([6]; OT-2, relative to OVA323-339+E. coli LPS, p<0.01): relatively higher levels of IL-4 and IL-5
clonal expansion of OVA-specific CD4+ Thy-1.2+ T cells in spleen ([6]; i.p. with OVA323-339 50 μg, E. coli LPS 25 μg or Pam-3-cys 50 μg, day 4): significantly enhanced the clonal expansion; also recorded: induced clonal expansion
IFNγ in restimulated spleen cell culture [6, 10]: much lower levels of IFNγ
IL-5 in restimulated spleen cell culture [6, 10]: ~70 pg/mL
IL-4 in restimulated spleen cell culture ([6]; mice injected with OVA323-339 + stimulus, ELISA sensitivity 8 pg/ml): ~30 pg/mL
in vitro proliferative capacity of OVA-specific CD4+ T cells ([6]; spleen cells restimulated with OVA, versus OVA323-339 alone): greatly enhanced responses
bias of the CD8+ Tc response in vivo ([7]; OT-1): shift the balance towards the Tc2 pathway
ratio IFNγ: IL-4 ([7]; OT-1, FIG. 13D): 28
ratio IFNγ: IL-5 ([7]; OT-1, FIG. 13D): 21
ratio IFNγ: IL-13 ([7]; OT-1, FIG. 13D): 4
clonal expansion of OVA-specific CD8+ T cells [7]: induced clonal expansion
clonal expansion of OVA-specific CD8+ T cells ([7]; listed as Pam-cys): enhanced the clonal expansion
IFNγ in restimulated spleen cell culture [7, 11]: lower levels of IFNγ
IL-4, IL-5 and IL-13 in restimulated spleen cell culture [7, 11]: relatively higher levels of IL-4, IL-5 and IL-13
in vitro proliferative capacity of OVA-specific CD8+ T cells ([7]; spleen cells restimulated with OVA257-264, versus OVA257-264 alone): greatly enhanced responses
induction of CD86 and I-Ab on splenic DC subsets ([8]; TLR-2 deficient (TLR2−/−) mice): severely impaired; also recorded: severely reduced
CD86 and MHC class II (I-Ab) expression on splenic DC subsets ([8]; wild type mice, E. coli LPS 25 μg, Pam-3-cys 50 μg, 6 hours): equivalent up-regulation of CD86 and MHC class II; also recorded: upregulated CD86 and I-Ab expression

flagellin
IL-10 secreted by DCs [3]: induced
IL-12(p70) secreted by DCs [3]: approximately 1000 pg/ml
TNF-α secreted by DCs [3]: strongly induced
type of Th response induced by stimulated DCs [4]: typical Th1 profile
phosphorylation of p38 MAP kinase in DCs (p38 MAP kinase): enhanced phosphorylation of p38 MAP kinase, which peaked at 15 minutes, and was sustained at levels well above baseline, even at 4 hours
ratio of p38:ERK phosphorylation in DCs (p38 MAP kinase): much higher ratios of p38:ERK1/2
JNK1 phosphorylation in DCs (JNK1/2): high levels
JNK 2 phosphorylation in DCs (JNK1/2): higher levels of JNK 2
phosphorylation of JNK1 and 2 in DCs (JNK1/2): higher levels of JNK1 and 2
phosphorylated c-Fos expression in DCs (c-Fos): not expressed
